SMILES strings stand for the structures. A value given as a limit tells only on which side of the number the result lay.

This note sets out measurements from patent publication US9695154B2, “Heteroaryl inhibitors of sumo activating enzyme” (MILLENNIUM PHARMACEUTICALS, INC., priority 2013, dated 2017).

This experiment concerns the target T1, recombinant human SAE enzyme (Homo sapiens, UniProt Q9UBT2).
T1 sequence (Q9UBT2 1-640): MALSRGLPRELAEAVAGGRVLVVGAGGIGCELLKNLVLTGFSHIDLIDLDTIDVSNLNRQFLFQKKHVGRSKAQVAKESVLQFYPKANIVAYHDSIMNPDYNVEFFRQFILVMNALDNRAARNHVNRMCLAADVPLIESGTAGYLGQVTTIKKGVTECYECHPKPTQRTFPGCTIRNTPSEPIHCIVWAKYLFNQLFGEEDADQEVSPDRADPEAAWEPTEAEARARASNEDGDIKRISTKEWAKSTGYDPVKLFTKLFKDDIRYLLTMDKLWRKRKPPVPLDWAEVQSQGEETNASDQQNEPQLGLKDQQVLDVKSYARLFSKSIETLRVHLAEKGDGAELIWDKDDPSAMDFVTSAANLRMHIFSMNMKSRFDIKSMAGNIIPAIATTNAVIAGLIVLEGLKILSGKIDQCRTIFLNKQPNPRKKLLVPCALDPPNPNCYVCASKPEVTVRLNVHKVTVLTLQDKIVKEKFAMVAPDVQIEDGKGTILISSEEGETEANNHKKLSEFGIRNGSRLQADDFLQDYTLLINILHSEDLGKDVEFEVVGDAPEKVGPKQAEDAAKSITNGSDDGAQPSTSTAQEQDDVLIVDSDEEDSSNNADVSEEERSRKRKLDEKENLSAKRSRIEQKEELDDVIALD
T1 sequence (Q9UBE0 1-346 partner): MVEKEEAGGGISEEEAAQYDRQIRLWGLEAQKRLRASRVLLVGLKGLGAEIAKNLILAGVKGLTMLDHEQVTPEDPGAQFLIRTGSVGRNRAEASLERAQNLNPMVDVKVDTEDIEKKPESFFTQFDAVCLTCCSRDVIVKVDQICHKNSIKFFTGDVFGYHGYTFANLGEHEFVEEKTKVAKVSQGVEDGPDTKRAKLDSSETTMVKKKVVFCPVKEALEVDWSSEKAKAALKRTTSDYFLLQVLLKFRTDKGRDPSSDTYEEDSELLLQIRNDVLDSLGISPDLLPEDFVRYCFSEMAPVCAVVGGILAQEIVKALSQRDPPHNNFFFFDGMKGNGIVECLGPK
In words: SAE HTRF Enzyme Assay. Format: biochemical. The note with it: for IC50: class symbols A-C; for inhibition at 0.111 µM: compound concentration 0.111 μM, read-out: Percent Inhibition. Put shortly:
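HTRF signal from Eu-anti-Flag/APC-anti-GST pairs reports Sumo-Flag loaded onto Ubc9-GST by 0.11 nM SAE. Reaction: 0.5 μM ATP, 0.125 μM Sumo-Flag, 0.01 μM Ubc9-GST, 5 mM MgCl2, pH 7.5, 105 min, 24° C. Single-concentration % inhibition or IC50 reported.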

`NS(=O)(=O)OC[C@H]1C[C@@H](Nc2ncncc2C(=O)c2ccn(Cc3ccc(F)c(C(F)(F)F)c3)c2)C[C@@H]1O` [Compound I-21, [(1R,2S,4R)-4-{[5-({1-[4-fluoro-3-(trifluoromethyl)benzyl]-1H-pyrrol-3-yl}carbonyl)pyrimidin-4-yl]amino}-2-hydroxycyclopentyl]methyl sulfamate]: the IC50 was less than 10 nM and the inhibition at 0.111 µM was found to be 99%.

For `Cc1cccc(Cn2ccc(C(=O)c3cncnc3N[C@@H]3C[C@H](COS(N)(=O)=O)[C@@H](O)C3)n2)c1F` [Compound I-22, {(1R,2S,4R)-4-[(5-{[1-(2-fluoro-3-methylbenzyl)-1H-pyrazol-3-yl]carbonyl}pyrimidin-4-yl)amino]-2-hydroxycyclopentyl}methyl sulfamate], the IC50 was less than 10 nM and the inhibition at 0.111 µM stood at 100%.

In the case of `NS(=O)(=O)OC[C@H]1C[C@@H](Nc2ncncc2C(=O)c2ccn(Cc3cccc(OC(F)(F)F)c3)n2)[C@@H](F)[C@@H]1O` [Compound I-23, [(1R,2R,3R,4R)-3-Fluoro-2-hydroxy-4-{[5-({1-[3-(trifluoromethoxy)benzyl]-1H-pyrazol-3-yl}carbonyl)pyrimidin-4-yl]amino}cyclopentyl]methyl sulfamate], the IC50 is less than 10 nM and the inhibition at 0.111 µM came to 98%.

`NS(=O)(=O)OC[C@H]1C[C@@H](Nc2ncncc2C(=O)c2ccn(Cc3ccc(Br)o3)c2)[C@@H](F)[C@@H]1O` [Compound I-24, [(1R,2R,3R,4R)-4-{[5-({1-[(5-Bromo-2-furyl)methyl]-1H-pyrrol-3-yl}carbonyl)pyrimidin-4-yl]amino}-3-fluoro-2-hydroxycyclopentyl]methyl sulfamate]: the 50% inhibitory concentration (IC50) is less than 10 nM and the inhibition at 0.111 µM was 100%.

Regarding `N#Cc1cccc(Cn2ccc(C(=O)c3cncnc3N[C@@H]3C[C@H](COS(N)(=O)=O)[C@@H](O)[C@H]3O)n2)c1` [Compound I-25, {(1R,2R,3S,4R)-4-[(5-{[1-(3-cyanobenzyl)-1H-pyrazol-3-yl]carbonyl}pyrimidin-4-yl)amino]-2,3-dihydroxycyclopentyl}methyl sulfamate], the IC50 is less than 10 nM and the inhibition at 0.111 µM was 93%.

Regarding `CC(C)(C)C#CCn1ccc(C(=O)c2cncnc2N[C@@H]2C[C@H](COS(N)(=O)=O)[C@@H](O)[C@@H]2F)c1` [Compound I-26, {(1R,2R,3R,4R)-4-[(5-{[1-(4,4-dimethylpent-2-yn-1-yl)-1H-pyrrol-3-yl]carbonyl}pyrimidin-4-yl)amino]-3-fluoro-2-hydroxycyclopentyl}methyl sulfamate], the IC50 lay within 10 to 100 nM and the inhibition at 0.111 µM was 90%.

Turning to `NS(=O)(=O)OC[C@H]1C[C@@H](Nc2ncncc2C(=O)c2ccn(CC#CC3(O)CCOCC3)n2)C[C@@H]1O` [Compound I-27, [(1R,2S,4R)-2-hydroxy-4-{[5-({1-[3-(4-hydroxytetrahydro-2H-pyran-4-yl)prop-2-yn-1-yl]-1H-pyrazol-3-yl}carbonyl)pyrimidin-4-yl]amino}cyclopentyl]methyl sulfamate], the IC50 lay within 100 to 1000 nM and the inhibition at 0.111 µM is 9%.

Consider `CCOCCn1ccc(C(=O)c2cncnc2N[C@@H]2C[C@H](COS(N)(=O)=O)[C@@H](O)[C@H]2O)n1` [Compound I-28, {(1R,2R,3S,4R)-4-[(5-{[1-(2-ethoxyethyl)-1H-pyrazol-3-yl]carbonyl}pyrimidin-4-yl)amino]-2,3-dihydroxycyclopentyl}methyl sulfamate], for which the IC50 is 10 to 100 nM and the inhibition at 0.111 µM was found to be 78%.

For the compound `NS(=O)(=O)OC[C@H]1C[C@@H](Nc2ncncc2C(=O)c2ccn(Cc3cncc(Br)c3)n2)C[C@@H]1O` [Compound I-29, [(1R,2S,4R)-4-{[5-({1-[(5-bromopridin-3-yl)methyl]-1H-pyrazol-3-yl}carbonyl)pyrimidin-4-yl]amino}-2-hydroxycyclopentyl]methyl sulfamate], the IC50 was in the range of 10 to 100 nM and the inhibition at 0.111 µM worked out at 94%.

Regarding `NS(=O)(=O)OC[C@H]1C[C@@H](Nc2ncncc2C(=O)c2ccn(CC3CC3)n2)[C@H](O)[C@@H]1O` [Compound I-30, {(1R,2R,3S,4R)-4-[(5-{[1-(cyclopropylmethyl)-1H-pyrazol-3-yl]carbonyl}pyrimidin-4-yl)amino]-2,3-dihydroxycyclopentyl}methyl sulfamate], the IC50 is 10 to 100 nM and the inhibition at 0.111 µM worked out at 66%.

`Cc1cc(C(=O)c2cncnc2N[C@@H]2C[C@H](COS(N)(=O)=O)[C@@H](O)[C@H]2O)nn1Cc1ccccc1` [Compound I-31, [(1R,2R,3S,4R)-4-({5-[(1-benzyl-5-methyl-1H-pyrazol-3-yl)carbonyl]pyrimidin-4-yl}amino)-2,3-dihydroxycyclopentyl]methyl sulfamate]: the IC50 is less than 10 nM and the inhibition at 0.111 µM was 94%.

With `Cc1ccc(F)c(Cn2ccc(C(=O)c3cncnc3N[C@@H]3C[C@H](COS(N)(=O)=O)[C@@H](O)C3)n2)c1` [Compound I-32, {(1R,2S,4R)-4-[(5-{[1-(2-fluoro-5-methylbenzyl)-1H-pyrazol-3-yl]carbonyl}pyrimidin-4-yl)amino]-2-hydroxycyclopentyl}methyl sulfamate], the IC50 is less than 10 nM and the inhibition at 0.111 µM was 98%.

Consider `NS(=O)(=O)OC[C@H]1C[C@@H](Nc2ncncc2C(=O)c2ccn(CCc3c[nH]c4ccccc34)n2)[C@H](O)[C@@H]1O` [Compound I-33, [(1R,2R,3S,4R)-2,3-dihydroxy-4-{[5-({1-[2-(1H-indol-3-yl)ethyl]-1H-pyrazol-3-yl}carbonyl)pyrimidin-4-yl]amino}cyclopentyl]methyl sulfamate], for which the IC50 is less than 10 nM and the inhibition at 0.111 µM worked out at 98%.

With `NS(=O)(=O)OC[C@H]1C[C@@H](Nc2ncncc2C(=O)c2ccn(Cc3ccc(Cl)c(C(F)(F)F)c3)n2)[C@H](O)[C@@H]1O` [Compound I-34, [(1R,2R,3S,4R)-4-{[5-({1-[4-chloro-3-(trifluoromethyl)benzyl]-1H-pyrazol-3-yl}carbonyl)pyrimidin-4-yl]amino}-2,3-dihydroxycyclopentyl] methyl sulfamate], the IC50 is less than 10 nM and the inhibition at 0.111 µM is 99%.

For the compound `NS(=O)(=O)OC[C@H]1C[C@@H](Nc2ncncc2C(=O)c2ccn(Cc3cc(F)ccc3F)n2)C[C@@H]1O` [Compound I-35, {(1R,2S,4R)-4-[(5-{[1-(2,5-difluorobenzyl)-1H-pyrazol-3-yl]carbonyl}pyrimidin-4-yl)amino]-2-hydroxycyclopentyl}methyl sulfamate], the IC50 is less than 10 nM and the inhibition at 0.111 µM was 95%.

In the case of `NS(=O)(=O)OC[C@H]1C[C@@H](Nc2ncncc2C(=O)c2cc(Cl)n(Cc3ccc(C(F)(F)F)o3)c2)[C@@H](F)[C@@H]1O` [Compound I-36, [(1R,2R,3R,4R)-4-({5-[(5-chloro-1-{[5-(trifluoromethyl)-2-furyl]methyl}-1H-pyrrol-3-yl)carbonyl]pyrimidin-4-yl}amino)-3-fluoro-2-hydroxycyclopentyl]methyl sulfamate], the IC50 is less than 10 nM and the inhibition at 0.111 µM turned out to be 99%.

`CSCCn1ccc(C(=O)c2cncnc2N[C@@H]2C[C@H](COS(N)(=O)=O)[C@@H](O)C2)n1` [Compound I-37, [(1R,2S,4R)-2-hydroxy-4-{[5-({1-[2-(methylsulfanyl)ethyl]-1H-pyrazol-3-yl}carbonyl)pyrimidin-4-yl]amino}cyclopentyl]methyl sulfamate]: the half-inhibitory concentration (IC50) fell in the range of 100 to 1000 nM and the inhibition at 0.111 µM was 42%.

As to `NS(=O)(=O)CC[C@H]1C[C@@H](Nc2ncncc2C(=O)c2ccn(Cc3cccc(Br)c3)n2)C[C@@H]1O` [Compound I-38, 2-{(1R,2S,4R)-4-[(5-{[1-(3-bromobenzyl)-1H-pyrazol-3-yl]carbonyl}pyrimidin-4-yl)amino]-2-hydroxycyclopentyl}ethanesulfonamide], the IC50 was 100 to 1000 nM and the inhibition at 0.111 µM was determined as 51%.

`NS(=O)(=O)OC[C@H]1C[C@@H](Nc2ncncc2C(=O)c2ccn(Cc3ccccc3OC(F)(F)F)n2)C[C@@H]1O` [Compound I-39, [(1R,2S,4R)-2-hydroxy-4-{[5-({1-[2-(trifluoromethoxy)benzyl]-1H-pyrazol-3-yl}carbonyl)pyrimidin-4-yl]amino}cyclopentyl]methyl sulfamate]: the concentration for half-maximal inhibition (IC50) is less than 10 nM and the inhibition at 0.111 µM was 98%.
